Measured values: patent US5321037A, “Isoxazole derivatives for use as cerebro-active drugs and central muscle relaxants” (Sankyo Company, Limited, priority 1986, dated 1994)
Where two headings read alike, the source gives them in different places.

Columns and labels:
[1] = test system: decerebrate rigidity in rats; assay: Suppression of decerebrate rigidity in rats; type: in vivo, rat
[2] = test system: thiopental anesthesia; assay: Potentiation of thiopental anesthesia (mice); type: in vivo, mouse (ddY strain); settings: for Anesthesia time: thiopental 30 mg/kg after one hour
Experimental: In the test method, male adult mice of ddY strain each weighing 20 to 30 g were used as divided groups each made up of 5 to 7 mice. Test compounds suspended in 0.5% CMC solution were orally administered. After one hour, thiopental (30 mg/kg) was injected into the tail vein, and the time required for the mouse to recover the righting reflex was measured.

[3] = test system: spinal reflex in cats; assay: Effect on spinal reflex in cats; type: in vivo, cat
Experimental: Adult cats weighing 3.0 to 4.5 kg each were used. After induction of anesthesia with ether, the animal was anesthetized by intravenous injection of 50 mg/kg of a-chloralose. After the trachea was cannulated, the animal was fixed on a stereotaxic apparatus, and the lumbosacral spinal cord was exposed by laminectomy from L3 to S1. The ventral roots of the right side were cut from L6 to S1 as distal as possible and the cut ends were ligated with cotton thread previously immersed in Ringer's solution. The exposed spinal cord was covered with warmed mineral oil and maintained at 37° C. The ventral root, either L7 or S1, was fixed on a pair of platinum wire electrodes. A pair of collar-type electrodes was implanted on the ipsilateral tibial nerve and the saphenous nerve, for stimulation. After completion of all these operations, the cat was immobilized with pancronium bromide (0.5 mg/kg, i.v.) and maintained by artificial respiration (40/minute). Recording was started at least 2 hours after withdrawal of ether anesthesia. A single square pulse (0.01 to 0.1 msecond pulse width, supramaximal intensity) was applied to the nerve at a frequency of 0.3 Hz from an electronic stimulator. […] In a similar manner to Experiment 2, the blood pressure, heart beat and body temperature of the animal were recorded and monitored. Compounds to be tested were also administered in a similar manner.

[4] = test system: decerebrate rigidity in rats; assay: Suppression of decerebrate rigidity in rats; type: in vivo, rat; remark: listed apart in the source
Description: The suppression of decerebrate rigidity in laboratory animals, such as rats, is a well known model for control of human spasticity and/or rigidity.
In the test method, a rat was anesthetized with halothane and fixed on a stereotaxic apparatus (SR-5, Narishige). In accordance with the brain atlas by Pellegrino et al., [L. J. Pellegrino, A. S. Pellegrino & A. J. Cushman: A Stereotaxic Atlas of the Rat Brain, Plenum Press, New York and London (1967)], an electrode 0.7 mm in diameter, which was insulated except for 1 mm at the tip, was inserted bilaterally into the midbrain reticular formation (AP: 0, L: ±1.5, H: -3.0). A clip serving as the reference electrode was fixed on the temporal muscle. Through these electrodes, a high frequency electric current (100 KHz, 10 to 20 mA) was applied from a lesion generator (Glass Co., LM4A) for 2 to 3 minutes to cauterize electrically this brain region.
The rat was then immediately set free from the stereotaxic apparatus. A polyethylene cannula was inserted into the duodenum and fixed with an acrylic resin (Aron Alfa, Sankyo Co., Ltd.). After completion of these operations, halothane anesthesia was immediately discontinued.
After 1.5 hours, when the animal awoke from the anesthesia, the rat was fixed on an apparatus devised in our laboratory for a hind leg fixation. Both hind legs were fixed at the anterior part of the ankle joints. Both hindlimb paws were then pushed in 4 mm for 6 seconds in every minute. The resulting repulsive tension was drawn on a polygraph through a strain gauge.
The test compounds were suspended in a 0.5% w/v CMC (carboxymethyl cellulose) aqueous solution and were administered orally (p.o.) or intraperitoneally (i.p.).
The results are summarized in the following Table 7, where the compounds of the present invention are identified by the number of the foregoing Example in which each was prepared, Compound X is the known compound eperisone hydrochloride, and Compound Y is the known compound afloqualone.

[5] = test system: decerebrate rigidity (cats); assay: Suppression of decerebrate rigidity (cats); type: in vivo, cat
Description: Adult cats each weight 3.0 to 4.5 kg were used. Under ether anesthesia, the trachea was cannulated and the common carotid arteries were ligated at both sides. The cat was decerebrated by suction at the precollicular level. Ether anesthesia was then immediately discontinued. A pair of needle electrodes was inserted into the neck muscle in order to pick up any EMG muscular discharges. The EMG discharge was amplified and recorded on a pen-writing recorder, along with an integration of the EMG discharge. Recording was started at least 2 hours after withdrawal of anesthesia. Blood pressure induced from the femoral artery, as well as body temperature and heart beat, were recorded and monitored throughout the experiment.
After stable EMG discharges were obtained, the test compounds suspended in 0.5% CMC solution were administered into the duodenum through a previously inserted cannula. The effect of the test compound was expressed as the ratio of the integrated EMG discharge after administration relative to the value before administration.

[6] = test system: ischemia-induced neurological symptoms in SHR SP; assay: Improvement in ischemia-induced neurological symptoms in Spontaneously Hypertensive Rats Stroke Prone (SHR SP) caused by ligation of the bilateral common carotid arteries; type: in vivo, rat (SHR SP)
Experimental: The test animals employed were male adult SHR SPs (13 or 15 weeks old). They were used in groups each consisting of about 10 animals. Under halothane anesthesia, both common carotid arteries of each animal were ligated to prepare a brain ischemia model. The halothane anesthesia was stopped immediately after the ligation, and then the time taken to recover the righting reflex, the onset time of convulsions and the survival time were determined. The test solution was prepared in the same manner as described in Experiment 1 and was administered to the animal intraperitoneally 30 minutes before the ligation. A 0.5% CMC solution was administered to the control group in the same manner. The statistical analysis was carried out in a similar manner to that in Experiment 1. The statistical analysis of the survival rate was carried out by the X^2 test.

[7] = test system: survival time under hypoxic conditions; assay: Effect on survival time under hypoxic conditions; type: in vivo, mouse (ddY strain); settings: 4% oxygen, 96% nitrogen
Description: The test animals employed were male adult mice (5 weeks old and about 30 g body weight) of the ddY strain. The animals were employed in groups, each containing from 7 to 17 animals. Each animal was given intraperitoneally a test compound in suspension (as in the preceding Experiments). Thirty (30) minutes after this administration, 2 or 3 animals were placed in a 1.5 liter gas chamber made of acrylate resin, and a mixture of 4% by volume oxygen and 96% nitrogen was supplied at the rate of 10 liters/minute. The time of death of the animal was measured (determined by the cessation of respiration).

[8] = test system: ischemia-induced neurological symptoms in the Mongolian Gerbil; assay: Improvement of ischemia-induced neurological symptoms in the Mongolian gerbil caused by ligation of the bilateral common carotid arteries for 30 minutes; type: in vivo; settings: 100 mg/kg i.p. upon recommencement of blood flow
Experimental: The test animals employed were male adult Mongolian gerbils (16-20 weeks old). These were used in groups each consisting of from 10 to 20 animals. The bilateral common carotid arteries were occluded for 30 minutes under anesthesia with pentobarbital (30 mg/kg, intraperitoneally) and halothane (it was introduced to a mixture of 95% oxygen and 5% carbon dioxide at a concentration of 1.5% by volume) and then the occlusion was released to allow the blood to flow. The animal was then placed in a supine position, and we measured (1) the time taken from recommencement of blood flow until convulsions occurred and (2) the survival time. Observations to determine the onset time of convulsions and the survival time were continued for 6 and 7 hours, respectively, after recommencement of blood flow. […] The compound to be tested was suspended in a 0.5% w/v carboxymethyl cellulose (CMC) aqueous solution and administered intraperitoneally upon recommencement of blood flow in the common carotid arteries. On the other hand, a 0.5% CMC solution containing no test compound was administered likewise to a control group. Statistical analysis was carried out using the Mann-Whitney U-test between the control group and the test group.

[9] = 100 mg/kg, administered as in Experiment 2
[10] = 100 mg/kg, after administration
[11] = Rattus norvegicus, po, 30 mg/kg p.o., read-out: Maximum inhibition
[12] = 100 mg/kg i.p. 30 minutes before ligation
[13] = 30 mg/kg i.p. 30 minutes before ligation

O=c1cc(-c2ccccc2)on1CC(O)CN1CCOCC1 (stereo not shown) [Compound 1a]
Duration of the effect ([1]; 10 mg/kg i.d.): > 90 min
inhibition in vivo at 30 mg/kg ([1]; Rattus norvegicus, intraduodenal, 30 mg/kg i.d., read-out: Maximum inhibition): 60%
Anesthesia time ([2]; 50 mg/kg p.o.): 288.5 ± 20.1 s
Anesthesia time ([2]; 100 mg/kg p.o.): 237.3 ± 25.5 s
Drowsiness (the adverse effect), implied ([2]; compared with afloqualone): induce drowsiness (the adverse effect) less than afloqualone
Prolongation of the duration of thiopental-induced anesthesia, in words ([2]; in comparison with eperisone hydrochloride): did not significantly prolong the duration of thiopental-induced anesthesia
Duration of the effect on spinal reflexes ([3]; 100 mg/kg): about 2 hours
Monosynaptic reflex [3, 9]: little affected
Polysynaptic reflex [3, 9]: remarkably inhibited
Spino-bulbo-spinal reflex [3, 9]: remarkably inhibited
Onset of the effect on spinal reflexes [3, 10]: 5 min
Time of maximum effect on spinal reflexes [3, 10]: 30 min
Mechanism shown by spinal reflexes ([3]; in vivo): interneuron blockers
Onset of the effect ([4]; 10 mg/kg i.d.): 10 min
Duration of the effect ([4]; 30 mg/kg i.d.): > 180 min
Onset of the effect ([4]; 30 mg/kg i.d.): 5 min
Duration of the effect ([4]; 30 mg/kg i.p.): > 120 min
Onset of the effect ([4]; 30 mg/kg i.p.): 5 min
Duration of the effect ([4]; 30 mg/kg p.o.): > 160 min
Onset of the effect ([4]; 30 mg/kg p.o.): 10 min
inhibition in vivo at 10 mg/kg ([4]; Rattus norvegicus, intraduodenal, 10 mg/kg i.d., read-out: Maximum inhibition): 20%
inhibition in vivo at 30 mg/kg ([4]; Rattus norvegicus, ip, 30 mg/kg i.p., read-out: Maximum inhibition): 60%
inhibition in vivo at 30 mg/kg [4, 11]: 95%
Inhibition of decerebrate rigidity ([5]; 100 mg/kg intraduodenal, 5 minutes after administration): About 30%
Inhibition of decerebrate rigidity ([5]; 100 mg/kg intraduodenal, 1 hour after administration): about 65%
Duration of inhibitory effects ([5]; 100 mg/kg intraduodenal, throughout the observation period): ≥ 2 h
Side effects and duration of action compared with eperisone hydrochloride ([5]; compared with eperisone hydrochloride): weaker in side effects and of longer action than eperisone hydrochloride

NC(=O)OCC(O)COc1cc(-c2cccc(Cl)c2)on1 (stereo not shown) [Example 4, 3-(3-Carbamoyloxy-2-hydroxypropoxy)-5-(m-chlorophenyl)isoxazole]
Onset time of convulsions and survival time, in words ([6]; 100 mg/kg): prolonged onset time of convulsions, survival time significantly
Onset time of convulsions [6, 12]: 97.6 ± 18.0 min
Recovery time of righting reflex [6, 12]: 10.1 ± 1.8 min
Survival rate [6, 12]: 44.4%
Survival time [6, 12]: 322.4 ± 34.8 min
Survival time ([7]; 100 mg/kg i.p.): 178.9 ± 15.0 s
Onset time of convulsions [8]: 233.9 min
Recovery time of righting reflex [8]: 115.7 min
Survival time [8]: 344.2 min

NC(=O)OCC(O)COc1noc2ccc(Cl)cc12 (stereo not shown) [Example 3, 3-(3-Carbamoyloxy-2-hydroxypropoxy)-5-chloro-1,2-benzisoxazole]
Onset time of convulsions and survival time, in words ([6]; 30 mg/kg): prolonged onset time of convulsions, survival time significantly
Onset time of convulsions [6, 13]: 106.5 ± 9.9 min
Recovery time of righting reflex [6, 13]: 7.1 ± 0.9 min
Survival rate [6, 13]: 80.0%
Survival time [6, 13]: 392.2 ± 21.2 min
Onset time of convulsions and survival time, in words ([6]; 100 mg/kg): prolonged onset time of convulsions, survival time significantly
Survival rate of ischemic animals, in words ([6]; 100 mg/kg): increased survival rate of ischemic animals
Onset time of convulsions [6, 12]: 306.9 ± 17.1 min
Recovery time of righting reflex [6, 12]: 36.3 ± 16.7 min
Survival rate [6, 12]: 100%
Survival time [6, 12]: 420.0 ± 0.0 min
Survival time ([7]; 30 mg/kg i.p.): 213.0 ± 27.5 s
Survival time ([7]; 100 mg/kg i.p.): 446.7 ± 36.9 s
Duration of the effect ([4]; 20 mg/kg p.o.): > 90 min
Onset of the effect ([4]; 20 mg/kg p.o.): 5 min
Duration of the effect ([4]; 30 mg/kg p.o.): > 90 min
Onset of the effect ([4]; 30 mg/kg p.o.): 5 min
Duration of the effect ([4]; 100 mg/kg p.o.): > 90 min
Onset of the effect ([4]; 100 mg/kg p.o.): 5 min
inhibition in vivo at 20 mg/kg ([4]; Rattus norvegicus, po, 20 mg/kg p.o., read-out: Maximum inhibition): 60%
inhibition in vivo at 30 mg/kg [4, 11]: 90%
inhibition in vivo at 100 mg/kg ([4]; Rattus norvegicus, po, 100 mg/kg p.o., read-out: Maximum inhibition): 90%
